Source: US6562809B1, “3-bicycloindole compounds” (NPS Allelix Corp., priority 1998, dated 2003)

What was measured:
5-HT1D receptor [1] = biological target: T1, 5-HT1D receptor (Homo sapiens, UniProt P28221); experiment: Binding affinity, 3H-serotonin displacement from membranes of cells expressing 5-HT1D; settings: 100 nM of test compound; 3H-serotonin 1 nM; 60 minute incubation at 22° C.; read-out: percent inhibition of binding of the radioligand at the 5-HT1D receptor
T1 construct: expressed in transfected cells
Experimental: (§1) Selected compounds of the previous examples, as well as reference compounds were evaluated for binding affinity using cell types receptive specifically to 5-HT1D and 5-HT1B ligands. The assay protocol generally entailed the incubation of membranes prepared from cells expressing the 5-HT1D or 5-HT1B subtype of 5-HT receptors with ^3H-serotonin (1 nM for 5-HT1D and 2.5 nM for 5-HT1B). Specific concentrations of the test compound were incubated with the radioligand and the membrane homogenates prepared from the recombinant cells. After a 60 minute incubation at 22° C., the incubation was terminated by vacuum filtration. The filters were washed with buffer and counted for radioactivity using liquid scintillation spectroscopy. The affinity of the test compound for the 5-HT1D receptor is expressed as the amount (in percent) of binding of the radioligand that is inhibited in the presence of 100 nM of test compound. A greater percent inhibition indicates greater affinity for the 5-HT1D receptor.

5-HT1D receptor [2] = biological target: T1, 5-HT1D receptor; experiment: Functional assay, inhibition of forskolin-stimulated adenyl cyclase (cAMP) in CHO Pro 5 cells; type: cell-based; settings: CHO cells stably expressing the 5-HT1D receptor; concentrations of 100 nM and 10 μM
Experimental: The 5HT1D and 5HT1B receptor subtypes respond to serotonin and other agonists by reducing adenyl cyclase mediated production of cyclic AMP. Particular test compounds were assayed for their ability to inhibit adenyl cyclase activity using the procedure described below. Forskolin was used to elevate the basal adenyl cyclase activity.
Compounds acting as antagonists at the 5HT1D and 5HT1B receptor subtypes will antagonize the agonist effect of serotonin and thus, will block the serotonin-induced inhibition of forskolin-stimulated adenyl cyclase activity. […]
The culture media of each well was removed, and the wells were washed once with serum free media. […] Basal adenyl cyclase activity was determined from wells with only SFM+IBMX media added.
The cells were then incubated at 37° C. for 30 minutes in a CO2 incubator. […] The pellets were discarded and the supernatants were stored at 4° C. until assayed for cAMP concentration. cAMP content for each extract was determined in duplicate by EIA (enzyme-immunoassay) using the Amersham Biotrak cAMP EIA kit (Amersham RPN 225).
Total inhibition (Io) of forskolin-stimulated adenyl cyclase activity by serotonin was determined as the difference in concentration of cAMP in the forskolin-treated cells (Cf) and serotonin-forskolin treated cells (Cd). […]

5-HT1B receptor = biological target: T2, 5-HT1B receptor (Homo sapiens, UniProt P28222); experiment: Binding affinity, 3H-serotonin displacement from membranes of cells expressing 5-HT1B; settings: 3H-serotonin 2.5 nM; 60 minute incubation at 22° C.; 100 nM test compound given only for 5-HT1D; read-out: percent inhibition at the 5-HT1B receptor
T2 construct: expressed in transfected cells
Experimental: as §1

T2 sequence (P28222 whole entry): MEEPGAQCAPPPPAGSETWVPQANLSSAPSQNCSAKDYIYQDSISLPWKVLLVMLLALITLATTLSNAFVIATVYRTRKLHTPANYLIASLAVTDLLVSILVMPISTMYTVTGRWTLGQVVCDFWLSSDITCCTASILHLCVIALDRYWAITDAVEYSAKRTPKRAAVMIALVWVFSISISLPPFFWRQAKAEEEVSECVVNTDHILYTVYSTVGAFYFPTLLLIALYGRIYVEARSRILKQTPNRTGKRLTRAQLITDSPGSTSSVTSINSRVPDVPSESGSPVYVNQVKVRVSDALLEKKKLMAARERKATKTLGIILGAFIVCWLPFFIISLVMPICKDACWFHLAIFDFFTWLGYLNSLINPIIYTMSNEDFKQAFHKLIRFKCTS
T1 sequence (P28221 whole entry): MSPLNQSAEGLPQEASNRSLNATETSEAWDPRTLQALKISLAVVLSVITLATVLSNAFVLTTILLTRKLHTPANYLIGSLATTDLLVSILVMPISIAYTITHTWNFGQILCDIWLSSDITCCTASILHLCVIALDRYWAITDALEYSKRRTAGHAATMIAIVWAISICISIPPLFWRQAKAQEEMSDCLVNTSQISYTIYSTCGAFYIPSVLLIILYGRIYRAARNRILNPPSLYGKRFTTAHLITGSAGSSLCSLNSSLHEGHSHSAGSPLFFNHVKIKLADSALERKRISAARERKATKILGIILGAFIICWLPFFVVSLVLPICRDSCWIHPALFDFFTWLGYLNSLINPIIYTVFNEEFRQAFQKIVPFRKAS

| Compound | inhibition at 0.1 µM (5-HT1D receptor [1]) [%] | forskolin stimulated production of cAMP (agonist activity) (5-HT1D receptor [2]) | inhibition at 0.1 µM (5-HT1B receptor) [%] |
| --- | --- | --- | --- |
| C1=C(c2c[nH]c3ccc(-c4cccs4)cc23)CC2CCCN2C1 [Example 3g, 5-(2-Thienyl)-3-[(8a-R,S)-1,2,3,5,8,8a-hexahydro-7-indolizinyl]-1H-indole] | > 75 |  |  |
| c1csc(-c2ccc3[nH]cc(C4CCN5CCCC5C4)c3c2)c1 [Example 14c, 3-[(7-R,S)(8a-R,S)-Octahydro-7-indolizinyl]-5-(2-thienyl)-1H-indole] | > 75 | decrease | < 50 |
| c1cc2[nH]cc(C3CCN4CCCC4C3)c2cc1C1CCOCC1 [Example 9g, 5-(Tetrahydropyran-4-yl)-[(7-R,S)(8a-R,S)-octahydro-7-indolizinyl]-1H-indole] | > 75 |  |  |
| CC(C)c1ccc2[nH]cc(C3CCN4CCCC4C3)c2c1 (single isomer, unassigned) [Example 9c, 5-Isopropyl-3-[(7R or 7S)(8a-R,S)-octahydro-7-indolizinyl]-1H-indole] | > 75 |  | < 50 |
| C1=C(c2ccc3[nH]cc(C4=CC5CCCN5CC4)c3c2)CCSC1 [Example 8f, 5-(5,6-Dihydro-2H-thiopyran-4-yl)-3-[(8a-R,S)-1,2,3,5,6,8a-hexahydro-7-indolizinyl]-1H-indole] | > 75 |  |  |
| C1=C(c2ccc3[nH]cc(C4=CCN5CCCC5C4)c3c2)CCCC1 [Example 8c, 5-(Cyclohexen-1-yl)-3-[(8a-R,S)-1,2,3,5,8,8a-hexahydro-7-indolizinyl]-1H-indole] | > 75 |  | < 50 |
| C1=C(c2ccc3[nH]cc(C4=CC5CCCN5CC4)c3c2)CCCC1 [Example 8d, 5-(Cyclohexen-1-yl)-3-[(8a-R,S)-1,2,3,5,6,8a-hexahydro-7-indolizinyl]-1H-indole] | > 75 |  |  |
| C1=C(c2c[nH]c3ccc(OC4CCCCC4)cc23)CC2CCCN2C1 [Example 3f, 5-Cyclohexyloxy-3-[(8a-R,S)-1,2,3,5,8,8a-hexahydro-7-indolizinyl]-1H-indole] | > 75 |  |  |
| Brc1ccc2[nH]cc(C3=CCN4CCCC4C3)c2c1 [Example 3e, 5-Bromo-3-[(8a-R,S)-1,2,3,5,8,8a-hexahydro-7-indolizinyl]-1H-indole] | > 75 |  |  |
| C1=C(c2ccc3[nH]cc(C4=CCN5CCCC5C4)c3c2)CCSC1 [Example 8e, 5-(5,6-Dihydro-2H-thiopyran-4-yl)-3-[(8a-R,S)-1,2,3,5,8,8a-hexahydro-7-indolizinyl]-1H-indole] | > 75 |  | < 50 |
| C1=C(c2ccc3[nH]cc(C4=CCN5CCCC5C4)c3c2)CCOC1 [Example 8a, 5-(5,6-Dihydro-2H-pyran-4-yl)-3-[(8a-R,S)-1,2,3,5,8,8a-hexahydro-7-indolizinyl]-1H-indole] | > 75 |  |  |
| OC1(c2ccc3[nH]cc(C4=CCN5CCCC5C4)c3c2)CCCCC1 [Example 3h, 1-{[3-(8a-R,S)-1,2,3,5,8,8a-Hexahydro-7-indolizinyl]-1H-indol-5-yl}cyclohexanol] | > 75 |  | < 50 |
| Cc1ccc2[nH]cc(C3=CCN4CCCC4C3)c2c1 [Example 3c, 5-Methyl-3-[(8a-R,S)-1,2,3,5,8,8a-hexahydro-7-indolizinyl]-1H-indole] | > 75 |  | < 50 |
| OC1(c2ccc3[nH]cc(C4=CCN5CCCC5C4)c3c2)CCOCC1 [Example 7, 4-{[3-(8a-R,S)-1,2,3,5,8,8a-Hexahydro-7-indolizinyl]-1H-indol-5-yl}tetrahydro-2H-pyran-4-ol] | > 75 |  | < 50 |
| CC(C)c1ccc2[nH]cc(C3=CCN4CCCC4C3)c2c1 [Example 3d, 5-Isopropyl-3-[(8a-R,S)-1,2,3,5,8,8a-hexahydro-7-indolizinyl]-1H-indole] | > 75 | decrease | < 50 |
| COc1ccc2[nH]cc(C3=CCN4CCCC4C3)c2c1 [Example 3b, 5-Methoxy-3-[(8a-R,S)-1,2,3,5,8,8a-hexahydro-7-indolizinyl]-1H-indole] | > 75 |  | < 50 |
| C1=C(c2ccc3[nH]cc(C4=CC5CCCN5CC4)c3c2)CCOC1 [Example 8b, 5-(5,6-Dihydro-2H-pyran-4-yl)-3-[(8a-R,S)-1,2,3,5,6,8a-hexahydro-7-indolizinyl]-1H-indole] | > 75 |  |  |
| CC1=C(c2c[nH]c3ccc(C(C)C)cc23)CC2CCCN2C1 [Example 6, 5-Isopropyl-3-[(8a,R,S)-6-methyl-1,2,3,5,8,8a-hexahydro-7-indolizinyl]-1H-indole] | > 75 |  | < 50 |
